Measurements from patent publication US20260232699A1, “COMPOSITIONS OF A CANNABINOID AND A KINASE INHIBITOR FOR THE TREATMENT OF CANCER” (SINOVEDA CANADA INC., priority 2023, published 2026).
pIC50: −log10 of the molar value. ≈ marks a conversion by molar mass, not a printed value.

Key:
[1] = system: HCC PDX models 575, 658, and LI-011; assay: Clonogenic assay on patient-derived xenograft tumor cells; type: cell-based; settings: Homo sapiens, 336 h; 575, 658, LI-011; 14 days continuous exposure; P=0.023; read-out: IC50 values, all PDX models examined
Procedure: Tumor xenografts (patient-derived: 575, […], and LI-011; as well as cell line-derived: HepG2) were passaged as subcutaneous xenografts in NMRI nu/nu mice. Once tumor volumes reached 600-1000 mm^3, tumors were harvested according to FELASA and GV-SOLAS animal welfare guidelines. Tumors were mechanically disaggregated and subsequently incubated with collagenase type IV (41 U/mL), DNase I (125 U/mL), hyaluronidase type III (100 U/mL), and dispase II (1 U/mL) in RPMI 1640 medium at 37° C. for 60-120 minutes. Cells were filtered through 100 μm and 40 μm mesh size sieves and washed with the same media devoid of enzymes and stored in liquid nitrogen vapor phase.
The clonogenic assay was carried out in 96 well, ultra-low attachment plates. Frozen aliquots of tumor cells were prepared from HepG2 HCC cells and the three tumor xenografts described above. Cells were thawed in Iscove's Modified Dulbecco's Medium (IMDM), supplemented with 20% (v/v) fetal calf serum, 50 μg/ml gentamicin, 1% ethanol, and 0.4% (w/v) agar prior to use. Test wells were first layered with 100 μl of the same soft-agar medium followed by 50 μl of media with tumor cells. Following solidification, the soft-agar layer was covered with 90 μl of the same culture medium without agar. After 24 hours, 10 μl of test compounds or control medium were added and left for 14 days (continuous exposure, 100 μl drug overlay). […]

[2] = system: pool of normal hepatocytes (HC3_23); assay: Normal hepatocyte toxicity, Calcein-AM; type: cell-based; settings: Homo sapiens, 48-hour incubation, William's E media
Procedure: To evaluate the safety margin of the compounds prior to clinical trials, the toxicity of the compounds toward a pool of normal hepatocytes was investigated in-house using a hepatocyte pool obtained from Xenotech (HC3_23). Cells were thawed and plated in 96 well, black walled, gamma-irradiated plates (100 μl) after reconstitution in William's E media with Gibco hepatocellular maintenance supplement. Following an 18-hour recovery period, the media was exchanged with the same media containing 9 serial dilutions of the test compound mixtures (8 to 2000 μg/ml). Experiments were performed in triplicate. Following a 48-hour incubation period, Calcein-AM was added to provide a final concentration of 7 ng/ml to each well and allowed to react for 60 minutes before readings were acquired (excitation 494 nm, emission 517 nm). Data were fit to sigmoidal curves using four-point logistic curve fitting software and the 50% inflection points used for IC50 values.

CNC(=O)c1cc(Oc2ccc(NC(=O)Nc3ccc(Cl)c(C(F)(F)F)c3)cc2)ccn1 [Sorafenib]
pIC50 [1]: 4.84
IC50 [2]: 70.1 µg/mL (≈ 151 µM)
